# Measured values from the OPERA property sets (Mansouri et al. 2018).
# Conditions: not given
SMILES,boiling point,melting point,log10 biodegradation half-life (days),log10 vapour pressure (mmHg),ready biodegradability,log10 Koc (L/kg),log10 Henry constant (atm·m³/mol)
Cc1ccc(Nc2ccc(C)cc2)cc1,330 °C,79.8 °C,,,,,
O=C(CCCN1CCC(O)(c2ccc(Br)cc2)CC1)c1ccc(F)cc1,,155 °C,,,,,
COc1ccc2c(c1OC)C(=O)O[C@@H]2[C@H]1c2cc3c(cc2CCN1C)OCO3,,132 °C,,,,,
C1=Cc2ccccc2C1,182 °C,-1.8 °C,0.477,0.0414,,,
CCc1ccc2c(c1)CCCC2,244 °C,-70 °C,,,,,
O=[N+]([O-])c1cc([N+](=O)[O-])c2ccccc2c1,,148 °C,,,,,
CCCC1CCCCC1C (stereo not drawn),176 °C,,,,,,
CC(=O)N=C1C=CC(=O)C=C1,,74.5 °C,,,,,
OCC(Br)CBr (stereo not drawn),,,,-1.04,,,
N#CCCN1CCCCC1,,-6.8 °C,,,,,
CCOc1ccccc1OS(=O)(=O)NC(O)=Nc1nc(OC)cc(OC)n1,,145 °C,,,,,
CCC(Cc1ccccc1)c1ccccc1 (stereo not drawn),290 °C,,,,,,
O=c1n(Cl)c(=O)n(Cl)c(=O)n1Cl,,,,,not readily biodegradable,,
CC(=O)N[C@@H](CS)C(=O)O,,110 °C,,,,,
Fc1c(F)c(F)c(F)c(F)c1F,80.2 °C,,,1.93,,,
Nc1ncccn1,,128 °C,,,,,
O=C(NC(=O)c1c(F)cccc1F)Nc1cc(Cl)c(OC(F)(F)C(F)C(F)(F)F)cc1Cl (stereo not drawn),,166 °C,,,,,
C=CC(O)C=C,116 °C,,,,,,
CC#Cc1ccccc1,183 °C,,,,,,
CCCC1CCCC(C)C1 (stereo not drawn),164 °C,,,,,,
COC(=O)c1ccccc1,199 °C,-15 °C,,-0.42,,2.1,
CCCCc1cc(C)ccc1O,228 °C,19 °C,,,,,
O=C1Cc2cccc3cccc1c23,,121 °C,,,,,

SMILES,boiling point,melting point,log10 biodegradation half-life (days),log10 vapour pressure (mmHg),ready biodegradability,log10 Koc (L/kg),log10 Henry constant (atm·m³/mol)
CC(C)(C(=O)c1cccnc1)c1cccnc1,,50.5 °C,,,,,
CCN(CC)CCOC(=O)C1(C2CCCCC2)CCCCC1.Cl,,165 °C,,,,,
Cc1cc(C)c2ccccc2n1,265 °C,,,-2.1,,,
CCCCCCCCCCCC[N+](C)(C)CC(=O)[O-],,,,,readily biodegradable,,
CCCCc1cccc2[nH]nnc12,,,,,,2.16,
COc1ccc(C(=O)c2cccc(C)c2)cc1C,,62.3 °C,,,,,
N#CC#CC#N,,20.5 °C,,,,,
CCCC(=O)OCC(C)C,157 °C,,,,,,
C#C[C@]1(O)CC[C@H]2[C@@H]3CCC4=CC(=O)CC[C@@H]4[C@H]3CC[C@@]21C,,204 °C,,,,,
Cc1cc(NC(N)=O)ccc1F,,,,,,1.75,
CN(C)C1=NC(=O)C(c2ccccc2)O1 (stereo not drawn),,134 °C,,,,,
C[C@]12CC[C@H]3[C@@H](CCC4=CC(=O)CC[C@@H]43)[C@@H]1CC[C@@H]2OC(=O)CCc1ccccc1,,95.5 °C,,,,,
CNC(=O)N(C)C,232 °C,75.5 °C,,,,,
Cn1ccc(=O)c2ccccc21,,152 °C,,,,,
O=C=Nc1ccc(Cl)cc1,204 °C,30 °C,,-0.712,,,
CC(C)c1cc(Oc2ccccc2)cc(C(C)C)c1NC(=S)NC(C)(C)C,,146 °C,,,,,
Cc1cc([N+](=O)[O-])ccc1O,,96 °C,,,,,
N#Cc1ccc(Cl)c([N+](=O)[O-])c1,,99 °C,,,,,
CNc1ccc(NC)c2c1C(=O)c1ccccc1C2=O,,220 °C,,-10.7,,,
Nc1ncnc2[nH]cnc12,,,,-10.4,,,
COc1ccccc1Oc1ccccc1OC,330 °C,79.5 °C,,,,,
COc1cc(O)c2c(c1)OC(c1ccc(O)cc1)CC2=O (stereo not drawn),,152 °C,,,,,
CCCCCC=CC=CC(=O)O,,49.5 °C,,,,,

SMILES,boiling point,melting point,log10 biodegradation half-life (days),log10 vapour pressure (mmHg),ready biodegradability,log10 Koc (L/kg),log10 Henry constant (atm·m³/mol)
CC(Cl)(Cl)C(=O)OCCOc1cc(Cl)c(Cl)cc1Cl,,49.5 °C,,,,,
CCCCCCCCCCC(C)C(=O)O (stereo not drawn),,22 °C,,,,,
CCOCC(C)C,81 °C,,,,,,
CC(F)(F)CC(F)(F)F,40 °C,,,,,,
COc1ccc(C(=O)c2ccccc2)cc1,355 °C,61.5 °C,,,,,
FC(F)(F)S(F)(F)(F)(F)F,-20 °C,-87 °C,,,,,
ClC1=CCCCC1,142 °C,,,,,,
CC(=O)C1CCCCC1,180 °C,,,,,,-4.47
CN(C)C(=O)Nc1ccc(Oc2ccc(Cl)cc2)cc1,,151 °C,,-8.41,not readily biodegradable,3.55,
CCC1CCCCC1,132 °C,-111 °C,0.301,1.11,not readily biodegradable,,
Cc1ccccc1CCl,198 °C,,,,,,
CC1(C)[C@@H]2CC(=O)[C@@](C)(O)[C@H]1C2,,38.5 °C,,,,,
Cc1ccc(C(C)(C)C)cc1,190 °C,-52 °C,,,readily biodegradable,,
Cc1ccc(O)c(C(C)(C)C)c1,237 °C,51.5 °C,,-1.6,not readily biodegradable,,
CC(C)CCCO,152 °C,,,,,,
COc1cc(CCN)cc(OC)c1OC,,35.5 °C,,,,,
C=CC(F)(F)F,-17 °C,,,3.64,,,
O=S(=O)(Cc1ccccc1)c1ccccc1,,146 °C,,,,,
NCCCCCCO,,57 °C,,-2.62,,,
COc1ccc(CN)cc1,236 °C,,,,,,
c1ccc(-c2ccccc2-c2ccccc2-c2ccccc2)cc1,420 °C,118 °C,,,,,
COc1cc(OC)c(C(=O)O)cc1OC,300 °C,145 °C,,,,,
CCOS(=O)(=O)C(F)(F)F,115 °C,,,,,,

SMILES,boiling point,melting point,log10 biodegradation half-life (days),log10 vapour pressure (mmHg),ready biodegradability,log10 Koc (L/kg),log10 Henry constant (atm·m³/mol)
CN(C)CCC=C1c2ccccc2CCc2ccccc21,,196 °C,,,,,
C=CC1CN2CCC1CC2C(=O)c1ccnc2ccc(OC)cc12 (stereo not drawn),,108 °C,,,,,
CC(=O)CCCCBr,216 °C,,,,,,
CC(CO)(CO)C(=O)O,,190 °C,,,,,
Clc1ccc(Cl)nn1,,67.5 °C,,,,,
CCc1cnc2ccccc2c1,266 °C,,,,,,
C=COCCC(C)C,112 °C,,,,,,
CC(C)(C)c1ccccc1,169 °C,-57.8 °C,,0.343,readily biodegradable,,
O=C1OC(=O)c2c(I)c(I)c(I)c(I)c21,,328 °C,,,,,
COC(=O)NN,,73 °C,,,,,
C[Si](C)(C)O[Si](C)(C)O[Si](C)(C)O[Si](C)(C)O[Si](C)(C)O[Si](C)(C)O[Si](C)(C)C,270 °C,-78 °C,,-2.5,,,
Nc1ccc2ccccc2c1,300 °C,113 °C,,-3.59,readily biodegradable,,-7.09
NC(=O)C1c2ccccc2CCc2ccccc21,,194 °C,,,,,
CC(C)=C1CCCC(C)C1 (stereo not drawn),174 °C,,,,,,
Cc1ccc(NC(O)=NC(C)(C)c2ccccc2)cc1,,203 °C,,-8.47,,,
O=C(c1ccccc1)c1c(F)c(F)c(F)c(F)c1F,,37 °C,,,,,
C/C(=N/NC(=O)c1ccncc1)c1ccco1,,202 °C,,,,,
CNCCCN,,,,,readily biodegradable,,
O=C(O)C=Cc1ccc(Cl)cc1,,249 °C,,,,,
O=C1CN(N=Cc2ccc([N+](=O)[O-])o2)C(=O)N1,,263 °C,,,,,
CCC(CC)OC(C)=O,133 °C,,,,,,
CCN(CC)c1nc(C)cc(OP(=S)(OC)OC)n1,,15 °C,,-4.82,,3,
C[C@]12CC[C@@H]3c4ccc(OC(=O)c5ccccc5)cc4CC[C@H]3[C@@H]1CC[C@@H]2O,,196 °C,,,,,

SMILES,boiling point,melting point,log10 biodegradation half-life (days),log10 vapour pressure (mmHg),ready biodegradability,log10 Koc (L/kg),log10 Henry constant (atm·m³/mol)
O=C(Cl)c1cc(C(=O)Cl)cc(C(=O)Cl)c1,,36.3 °C,,,,,
CC(C)(C)c1ccc(O)c(C(C)(C)C)c1,264 °C,56.5 °C,,-2.32,not readily biodegradable,,
C=CCc1ccc(O)cc1,238 °C,15.8 °C,,,,,
CCOc1ccc(C(C)(C)COCc2cccc(Oc3ccccc3)c2)cc1,,37 °C,,,,,
CC1=CC[C@@]23CC1C(C)(C)[C@@H]2CC[C@H]3C,,262 °C,,,,,
CCCCCC(C)(C)O,156 °C,-50.4 °C,,,,,
CCN,16.6 °C,,,3.02,readily biodegradable,,-4.91
CCCCCC(=O)Cc1cc(O)cc2c1C(=O)Oc1cc(O)c(C(=O)O)c(CCCCC)c1O2,,205 °C,,,,,
O=C1CCC(=O)N1I,,204 °C,,,,,
CCCCCCC(=O)OCCCCC,245 °C,-50 °C,,,,,
CCC=C(C)CC,112 °C,,,1.91,,,
CC(C)(C)c1cc(C(C)(C)c2ccc(O)c(C(C)(C)C)c2)ccc1O,,114 °C,,,,,
CCCCCCCC(=O)OCCCC,240 °C,-42.9 °C,,,,,
N[C@@H](CCC(=O)N[C@@H](CS)C(=O)NCC(=O)O)C(=O)O,,195 °C,,,,,
C[C@]12CC[C@H]3[C@@H](CCC4=CC(=O)CC[C@@]43C)[C@@H]1CC[C@@H]2O,,155 °C,,,,,
OCCNCCO,269 °C,28 °C,,-3.55,readily biodegradable,0.6,
C1CCC(CCCC2CCCC2)CC1,270 °C,,,,,,
C=COc1ccccc1,156 °C,,,,,,
CNc1ccc(O)c2c1C(=O)c1c(O)ccc(NC)c1C2=O,,217 °C,,,,,
C1CNCCNC1,169 °C,43.5 °C,,,,,

# Same assay, conditions: fish
SMILES,log10 biotransformation half-life (days),log10 BCF
Cc1ccc(C(C)(C)C)cc1,0.31,
CC(C)(C)c1ccc(O)c(C(C)(C)C)c1,-0.37,2.4
